Source: PubChem BioAssay AID330 (DTP/NCI, 2004)
“And” between values parts separate entries of the source, which are not always exact repeats. Equal values may be shown once. Inconclusive results and toxic doses are left out. How the source made its calls: active means survival T/C of 150% or more; inactive means T/C below 125% in these data.

Test system: P388 leukemia ip, CD2F1 mice, survival T/C
Assay: NCI In Vivo Anticancer Drug Screen. Data for tumor model P388 Leukemia (intraperitoneal) in CD2F1 (CDF1) mice
Settings: endpoint: median survival time, higher = longer survival
Method in brief: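 Mice carrying the transplanted tumor received test compound or vehicle. Survival was recorded in each group, and the value is the treated-group measurement divided by that of the vehicle-treated control group.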

[1] = dose: 50.0 mg/kg/injection, schedule: Q01DX009 (ip), vehicle: saline with Tween-80
[2] = dose: 100.0 mg/kg/injection, schedule: Q01DX009 (ip), vehicle: saline with Tween-80
[3] = dose: 200.0 mg/kg/injection, schedule: Q01DX009 (ip), vehicle: saline with Tween-80
[4] = dose: 50.0 mg/kg/injection, schedule: Q01DX005 (ip), vehicle: Klucel (hydroxypropylcellulose) (HPC)
[5] = dose: 100.0 mg/kg/injection, schedule: Q01DX005 (ip), vehicle: Klucel (hydroxypropylcellulose) (HPC)
[6] = dose: 200.0 mg/kg/injection, schedule: Q01DX005 (ip), vehicle: Klucel (hydroxypropylcellulose) (HPC)
[7] = dose: 6.25 mg/kg/injection, schedule: Q01DX009 (ip), vehicle: saline
[8] = dose: 12.5 mg/kg/injection, schedule: Q01DX009 (ip), vehicle: saline
[9] = dose: 25.0 mg/kg/injection, schedule: Q01DX009 (ip), vehicle: saline
[10] = dose: 50.0 mg/kg/injection, schedule: Q01DX009 (ip), vehicle: saline
[11] = dose: 12.5 mg/kg/injection, schedule: Q04DX003 (ip), vehicle: saline with Tween-80
[12] = dose: 25.0 mg/kg/injection, schedule: Q04DX003 (ip), vehicle: saline with Tween-80
[13] = dose: 50.0 mg/kg/injection, schedule: Q04DX003 (ip), vehicle: saline with Tween-80
[14] = dose: 60.0 mg/kg/injection, schedule: Q01DX005 (ip), vehicle: saline with Tween-80
[15] = dose: 120.0 mg/kg/injection, schedule: Q01DX005 (ip), vehicle: saline with Tween-80
[16] = dose: 240.0 mg/kg/injection, schedule: Q01DX005 (ip), vehicle: saline with Tween-80
[17] = dose: 50.0 mg/kg/injection, schedule: Q01DX005 (ip), vehicle: saline with Tween-80
[18] = dose: 100.0 mg/kg/injection, schedule: Q01DX005 (ip), vehicle: saline with Tween-80
[19] = dose: 200.0 mg/kg/injection, schedule: Q01DX005 (ip), vehicle: saline with Tween-80
[20] = dose: 100.0 mg/kg/injection, schedule: Q01DX009 (ip), vehicle: saline
[21] = dose: 25.0 mg/kg/injection, schedule: Q01DX009 (ip), vehicle: Klucel (hydroxypropylcellulose) (HPC)
[22] = dose: 50.0 mg/kg/injection, schedule: Q01DX009 (ip), vehicle: Klucel (hydroxypropylcellulose) (HPC)
[23] = dose: 100.0 mg/kg/injection, schedule: Q01DX009 (ip), vehicle: Klucel (hydroxypropylcellulose) (HPC)
[24] = dose: 200.0 mg/kg/injection, schedule: Q01DX009 (ip), vehicle: Klucel (hydroxypropylcellulose) (HPC)
[25] = dose: 100.0 mg/kg/injection, schedule: Q04DX002 (ip), vehicle: saline with Tween-80

Measured: T/C

CNP(=O)(OC)Oc1ccc(C(C)(C)C)cc1Cl (stereo unspecified)
inactive: [1] 112 % of control | [2] 106 % of control | [3] 115 % of control

N[C@H]1CN([C@@H](C(=O)O)c2ccc(O)cc2)C1=O
inactive: [4] 105 % of control | [5] 105 % of control | [6] 103 % of control | dose: 400.0 mg/kg/injection, schedule: Q01DX005 (ip), vehicle: Klucel (hydroxypropylcellulose) (HPC) 99 % of control

CC1=CC(=O)N(NC(N)=O)C1=O
inactive: [7] 102 % of control and 110 % of control | [8] 105 % of control and 108 % of control | [9] 110 % of control and 123 % of control | [10] 109 % of control and 122 % of control

COc1cccc2c1C(=O)c1c(O)c3c(c(O)c1C2=O)C[C@@](O)(C(C)=O)CC3OC1CC(N/C(C)=C/C(=O)c2ccccc2)C(O)C(C)O1 (stereo partly specified)
inactive: dose: 6.25 mg/kg/injection, schedule: Q04DX003 (ip), vehicle: saline with Tween-80 105 % of control | [11] 104 % of control | [12] 105 % of control and 107 % of control | [13] 101 % of control and 111 % of control

Cl/N=C1/C=CC=C/C1=N/Cl
inactive: dose: 50.0 mg/kg/injection, schedule: Q01DX005 (ip), vehicle: saline 106 % of control | dose: 100.0 mg/kg/injection, schedule: Q01DX005 (ip), vehicle: saline 104 % of control | dose: 200.0 mg/kg/injection, schedule: Q01DX005 (ip), vehicle: saline 101 % of control

NCCc1ccc(OCc2ccccc2)c(OCc2ccccc2)c1
inactive: [7] 101 % of control and 107 % of control | [8] 108 % of control and 118 % of control | [9] 101 % of control and 109 % of control

Cc1oc2c(C)c3oc(=O)cc(C)c3cc2c1CO
inactive: dose: 100.0 mg/kg/injection, schedule: Q05DX002 (ip), vehicle: Klucel (hydroxypropylcellulose) (HPC) 92 % of control | dose: 200.0 mg/kg/injection, schedule: Q05DX002 (ip), vehicle: Klucel (hydroxypropylcellulose) (HPC) 97 % of control | dose: 400.0 mg/kg/injection, schedule: Q05DX002 (ip), vehicle: Klucel (hydroxypropylcellulose) (HPC) 95 % of control

CCCCC[C@@H]1CC=C[C@@H](NC(=O)OCc2ccccc2)[C@H]1/C=C/C(=O)CCCCC1OCCO1
inactive: dose: 60.0 mg/kg/injection, schedule: Q01DX005 (ip), vehicle: DMSO 101 % of control | dose: 120.0 mg/kg/injection, schedule: Q01DX005 (ip), vehicle: DMSO 93 % of control | dose: 240.0 mg/kg/injection, schedule: Q01DX005 (ip), vehicle: DMSO 98 % of control

CC(=O)N1CCCC2=C1CCCC2
inactive: dose: 25.0 mg/kg/injection, schedule: Q04DX003 (ip), vehicle: saline 100 % of control | dose: 50.0 mg/kg/injection, schedule: Q04DX003 (ip), vehicle: saline 103 % of control | dose: 100.0 mg/kg/injection, schedule: Q04DX003 (ip), vehicle: saline 104 % of control and 92 % of control | dose: 400.0 mg/kg/injection, schedule: Q04DX003 (ip), vehicle: saline 101 % of control

CSC1=NC(=S)C(C)(C)NN1
inactive: dose: 100.0 mg/kg/injection, schedule: Q04DX002 (ip), vehicle: Klucel (hydroxypropylcellulose) (HPC) 104 % of control

O=C1CCCC2=C1C(c1ccccc1)C1=C(CCCC1=O)O2
inactive: [14] 100 % of control | [15] 94 % of control | [16] 92 % of control

COc1ccc(-c2coc3cc(OC4OC(COC5OC(CO)C(O)C(O)C5O)C(O)C(O)C4O)cc(O)c3c2=O)cc1 (stereo unspecified)
inactive: dose: 25.0 mg/kg/injection, schedule: Q01DX009 (ip), vehicle: saline with Tween-80 101 % of control | [1] 98 % of control | [2] 93 % of control

Cc1ccccc1Nc1c2ccccc2nc2ccccc12
inactive: [11] 95 % of control | [12] 95 % of control | [13] 104 % of control

CCOC(=O)C1CSC(c2c(COP(=O)(O)O)cnc(C)c2O)N1 (stereo unspecified)
inactive: [17] 96 % of control | [18] 100 % of control | [19] 94 % of control

CC(=O)c1ccc(C(C)=O)cc1
inactive: [10] 101 % of control | [20] 95 % of control | dose: 200.0 mg/kg/injection, schedule: Q01DX009 (ip), vehicle: saline 109 % of control

CCC(=O)Nc1nnc(SCCCCCCCCCCCCSc2nnc(NC(=O)CC)s2)s1
inactive: [4] 96 % of control | [5] 88 % of control | [6] 87 % of control

Cc1nn(C)c2ccc3ccccc3c(=O)c12
inactive: dose: 60.0 mg/kg/injection, schedule: Q01DX005 (ip), vehicle: Klucel (hydroxypropylcellulose) (HPC) 101 % of control | dose: 120.0 mg/kg/injection, schedule: Q01DX005 (ip), vehicle: Klucel (hydroxypropylcellulose) (HPC) 102 % of control | dose: 240.0 mg/kg/injection, schedule: Q01DX005 (ip), vehicle: Klucel (hydroxypropylcellulose) (HPC) 105 % of control

CCOC(=O)c1c(N)sc2c1CCC2
inactive: dose: 100.0 mg/kg/injection, schedule: Q01DX001 (ip), vehicle: saline sonified 100 % of control | dose: 200.0 mg/kg/injection, schedule: Q01DX001 (ip), vehicle: saline sonified 95 % of control | dose: 400.0 mg/kg/injection, schedule: Q01DX001 (ip), vehicle: saline sonified 100 % of control

N#Cc1ccccc1C#N
inactive: dose: 1.56 mg/kg/injection, schedule: Q04DX003 (ip), vehicle: saline 98 % of control | dose: 3.13 mg/kg/injection, schedule: Q04DX003 (ip), vehicle: saline 98 % of control | dose: 6.25 mg/kg/injection, schedule: Q04DX003 (ip), vehicle: saline 100 % of control | [11] 104 % of control | dose: 12.5 mg/kg/injection, schedule: Q04DX003 (ip), vehicle: saline 100 % of control | [12] 95 % of control

O=[N+]([O-])c1ccc(N/N=C/c2ccc(Cl)cc2)nc1
inactive: dose: 6.25 mg/kg/injection, schedule: Q01DX009 (ip), vehicle: Klucel (hydroxypropylcellulose) (HPC) 87 % of control | dose: 12.5 mg/kg/injection, schedule: Q01DX009 (ip), vehicle: Klucel (hydroxypropylcellulose) (HPC) 89 % of control | [21] 91 % of control | [22] 91 % of control | [23] 98 % of control | [24] 105 % of control and 89 % of control | [3] 91 % of control and 93 % of control | dose: 400.0 mg/kg/injection, schedule: Q01DX009 (ip), vehicle: saline with Tween-80 112 % of control

ClC(Cl)=Nc1ccccc1
inactive: [21] 103 % of control | [22] 103 % of control | [23] 110 % of control | [24] 93 % of control

C[C@@H]1CC=C[C@@H](NC(=O)OCc2ccccc2)[C@H]1C=O
inactive: [14] 103 % of control | [15] 99 % of control | [16] 98 % of control

O=[N+]([O-])c1cccn2cnnc12
inactive: [10] 98 % of control | [20] 87 % of control

O=c1[nH]c(Br)nc2nc[nH]c12
inactive: [17] 93 % of control | [18] 94 % of control | [19] 92 % of control

COC(=O)N/N=C(/CC1(O)C(=O)Nc2ccc(Br)cc21)c1ccc(Cl)cc1Cl (stereo unspecified)
inactive: [25] 89 % of control | dose: 200.0 mg/kg/injection, schedule: Q04DX002 (ip), vehicle: saline with Tween-80 95 % of control | dose: 400.0 mg/kg/injection, schedule: Q04DX002 (ip), vehicle: saline with Tween-80 100 % of control

CC1=NS(C)(=O)=c2ccc(C)cc2=N1 (stereo unspecified)
inactive: dose: 50.0 mg/kg/injection, schedule: Q01DX005 (ip), vehicle: acetone 100 % of control | dose: 100.0 mg/kg/injection, schedule: Q01DX005 (ip), vehicle: acetone 100 % of control | dose: 200.0 mg/kg/injection, schedule: Q01DX005 (ip), vehicle: acetone 100 % of control

N#Cc1ccc2c(ccc3ncccc32)n1
inactive: dose: 25.0 mg/kg/injection, schedule: Q04DX002 (ip), vehicle: saline with Tween-80 100 % of control | dose: 50.0 mg/kg/injection, schedule: Q04DX002 (ip), vehicle: saline with Tween-80 100 % of control | [25] 101 % of control
